Source: US20060069132A1, “Azolecarboxamide herbicides” (priority 2004, published 2006)

Key:
Test in all cases: Test E pre-/postemergence herbicide test
annual bluegrass = format: in vivo, Poa annua
Description: (§1) Seeds of plant species selected from bipinnate beggarticks (Bidens bipinnata L.), hairy beggarticks (Bidens radiata Thuill.), bermudagrass (Cynodon dactylon (L.) Pers.), Surinam grass (Urochloa decumbens (Staph) R. D. Webster, previously named Brachiaria decumbens Stapf), large crabgrass (Digitaria sanguinalis (L.) Scop.), green foxtail (Setaria viridis (L.) P. Beauv.), goosegrass (Eleusine indica (L.) Gaertn.), johnsongrass (Sorghum halepense (L.) Pers.), kochia (Kochia scoparia (L.) Schrad.), pitted morningglory (Ipomoea lacunosa L.), purple nutsedge (Cyperus rotundus L.), common ragweed (Ambrosia elatior L.), mustard (Brassica nigra (L.) W. D. J. Koch), guineagrass (Panicum maximum Jacq.), dallisgrass (Paspalum dilatatum Poir.), barnyardgrass (Echinochloa crus-galli (L). P. Beauv.), southern sandbur (Cenchrus echinatus L.), common sowthistle (Sonchus oleraceous L.), prickly sida (Sida spinosa L.), Italian ryegrass (Lolium multiflorum Lam.), common purslane (Portulaca oleracea L.), broadleaf signalgrass (Brachiaria platyphylla (Griseb.) Nash), common groundsel (Senecio vulgaris L.), common chickweed (Stellaria media (L.) Vill/Cyr.), tropical spiderwort (Commelina benghalensis L.), annual bluegrass (Poa annua L.), downy bromegrass (Bromus tectorum L.), itchgrass (Rottboellia cochinchinensis (L.) L.f.), quackgrass (Elytrigia repens (L.) Nevski), Canada horseweed (Erigeron Canadensis L.), field bindweed (Convolvulus arvensis L.), spotted spurge (Euphorbia maculata L.), common mallow (Malva sylvestris (=s silvestris) L.), and Russian thistle (Salsola kali L. ssp. Ruthenica (Iljin) Soo) were planted and treated preemergence with test chemicals formulated in a non-phytotoxic solvent mixture which included a surfactant.
(§2) At the same time, plants selected from these weed species were treated with postemergence applications of some of the test chemicals formulated in the same manner. Plants ranged in height from 2 to 18 cm (1- to 4-leaf stage) for postemergence treatments. Treated plants and controls were maintained in a greenhouse for 12 to 14 days, after which time all species were compared to controls and visually evaluated. Plant response ratings, summarized in Table E, are based on a scale of 0 to 100 where 0 is no effect and 100 is complete control. A dash (-) response means no test result.

pitted morningglory = format: in vivo, Ipomoea lacunosa
Description: as §1, §2

large crabgrass = format: in vivo, Digitaria sanguinalis
Description: as §1, §2

common sowthistle = format: in vivo, Sonchus oleraceous
Description: as §1, §2

common mallow = format: in vivo, Malva sylvestris
Description: as §1, §2

southern sandbur = format: in vivo, Cenchrus echinatus
Description: as §1, §2

green foxtail = format: in vivo, Setaria viridis
Description: as §1, §2

downy bromegrass = format: in vivo, Bromus tectorum
Description: as §1, §2

dallisgrass = format: in vivo, Paspalum dilatatum
Description: as §1, §2

[1] = Preemergence, 62 g ai/ha, scale 0 to 100
[2] = Preemergence, 125 g ai/ha, scale 0 to 100
[3] = Preemergence, 250 g ai/ha, scale 0 (no effect) to 100 (complete control)
[4] = Postemergence, 500 g ai/ha, scale 0 to 100
[5] = Postemergence, 250 g ai/ha, scale 0 to 100
[6] = Preemergence, 500 g ai/ha, scale 0 (no effect) to 100 (complete control)
[7] = postemergence, 125 g ai/ha, scale 0 to 100
[8] = postemergence, 62 g ai/ha, scale 0 to 100

CCc1nn(C(C)C)nc1C(=O)Nc1cccc(C(=O)N2CCCCC2)c1 [Compound 385]
0: Plant response rating, Bluegrass (annual bluegrass; [1]) | Plant response rating, Sowthistle (common sowthistle; [2]) | Plant response rating, Sandbur (southern sandbur; [1])
80: Plant response rating, Crabgrass, Large (large crabgrass; [1]) | Plant response rating, Crabgrass, Large (large crabgrass; [2]) | Plant response rating, Crabgrass, Large (large crabgrass; [3])
30: Plant response rating, Bluegrass (annual bluegrass; [3]) | Plant response rating, Foxtail, Green (green foxtail; [2]) | Plant response rating, Dallisgrass (dallisgrass; [2])
10: Plant response rating, Bluegrass (annual bluegrass; [2]) | Plant response rating, Morningglory (pitted morningglory; [1]) | Plant response rating, Morningglory (pitted morningglory; [2]) | Plant response rating, Morningglory (pitted morningglory; [3]) | Plant response rating, Mallow (common mallow; [1]) | Plant response rating, Mallow (common mallow; [2]) | Plant response rating, Sandbur (southern sandbur; [2]) | Plant response rating, Foxtail, Green (green foxtail; [1]) | Plant response rating, Bromegrass, Downy (downy bromegrass; [1]) | Plant response rating, Bromegrass, Downy (downy bromegrass; [2]) | Plant response rating, Dallisgrass (dallisgrass; [1])
50: Plant response rating, Dallisgrass (dallisgrass; [3])
20: Plant response rating, Mallow (common mallow; [3]) | Plant response rating, Bromegrass, Downy (downy bromegrass; [3])
40: Plant response rating, Sandbur (southern sandbur; [3])
60: Plant response rating, Sowthistle (common sowthistle; [3]) | Plant response rating, Foxtail, Green (green foxtail; [3])

CCNC(=O)c1ccc(F)c(NC(=O)c2cn(C(C)(C)C)nc2CC)c1 [Compound 193]
100: Plant response rating, Bluegrass (annual bluegrass; [2]) | Plant response rating, Bluegrass (annual bluegrass; [3]) | Plant response rating, Bluegrass (annual bluegrass; [6]) | Plant response rating, Crabgrass, Large (large crabgrass; [4]) | Plant response rating, Crabgrass, Large (large crabgrass; [5]) | Plant response rating, Crabgrass, Large (large crabgrass; [3]) | Plant response rating, Crabgrass, Large (large crabgrass; [6]) | Plant response rating, Foxtail, Green (green foxtail; [6]) | Plant response rating, Dallisgrass (dallisgrass; [6])
60: Plant response rating, Morningglory (pitted morningglory; [5]) | Plant response rating, Morningglory (pitted morningglory; [7]) | Plant response rating, Crabgrass, Large (large crabgrass; [1]) | Plant response rating, Sowthistle (common sowthistle; [7]) | Plant response rating, Mallow (common mallow; [1]) | Plant response rating, Mallow (common mallow; [7]) | Plant response rating, Sandbur (southern sandbur; [6])
85: Plant response rating, Bluegrass (annual bluegrass; [4])
90: Plant response rating, Mallow (common mallow; [4]) | Plant response rating, Mallow (common mallow; [5]) | Plant response rating, Foxtail, Green (green foxtail; [4]) | Plant response rating, Bromegrass, Downy (downy bromegrass; [6]) | Plant response rating, Dallisgrass (dallisgrass; [4]) | Plant response rating, Dallisgrass (dallisgrass; [5])
10: Plant response rating, Crabgrass, Large (large crabgrass; [8]) | Plant response rating, Sowthistle (common sowthistle; [8]) | Plant response rating, Sandbur (southern sandbur; [5]) | Plant response rating, Sandbur (southern sandbur; [2]) | Plant response rating, Foxtail, Green (green foxtail; [1]) | Plant response rating, Foxtail, Green (green foxtail; [8]) | Plant response rating, Bromegrass, Downy (downy bromegrass; [1]) | Plant response rating, Dallisgrass (dallisgrass; [8])
70: Plant response rating, Bluegrass (annual bluegrass; [5]) | Plant response rating, Morningglory (pitted morningglory; [6]) | Plant response rating, Bromegrass, Downy (downy bromegrass; [5])
30: Plant response rating, Morningglory (pitted morningglory; [8]) | Plant response rating, Foxtail, Green (green foxtail; [2]) | Plant response rating, Bromegrass, Downy (downy bromegrass; [2]) | Plant response rating, Bromegrass, Downy (downy bromegrass; [7])
80: Plant response rating, Bluegrass (annual bluegrass; [1]) | Plant response rating, Crabgrass, Large (large crabgrass; [2]) | Plant response rating, Crabgrass, Large (large crabgrass; [7]) | Plant response rating, Sowthistle (common sowthistle; [1]) | Plant response rating, Foxtail, Green (green foxtail; [3]) | Plant response rating, Bromegrass, Downy (downy bromegrass; [4]) | Plant response rating, Bromegrass, Downy (downy bromegrass; [3])
50: Plant response rating, Bluegrass (annual bluegrass; [7]) | Plant response rating, Morningglory (pitted morningglory; [3]) | Plant response rating, Foxtail, Green (green foxtail; [5])
95: Plant response rating, Sowthistle (common sowthistle; [4]) | Plant response rating, Sowthistle (common sowthistle; [5]) | Plant response rating, Sowthistle (common sowthistle; [2]) | Plant response rating, Sowthistle (common sowthistle; [3]) | Plant response rating, Sowthistle (common sowthistle; [6]) | Plant response rating, Mallow (common mallow; [2]) | Plant response rating, Mallow (common mallow; [3]) | Plant response rating, Mallow (common mallow; [6]) | Plant response rating, Dallisgrass (dallisgrass; [2]) | Plant response rating, Dallisgrass (dallisgrass; [3])
20: Plant response rating, Bluegrass (annual bluegrass; [8]) | Plant response rating, Morningglory (pitted morningglory; [2]) | Plant response rating, Mallow (common mallow; [8]) | Plant response rating, Sandbur (southern sandbur; [4]) | Plant response rating, Sandbur (southern sandbur; [3]) | Plant response rating, Foxtail, Green (green foxtail; [7]) | Plant response rating, Bromegrass, Downy (downy bromegrass; [8])
0: Plant response rating, Morningglory (pitted morningglory; [1]) | Plant response rating, Sandbur (southern sandbur; [1]) | Plant response rating, Sandbur (southern sandbur; [7]) | Plant response rating, Sandbur (southern sandbur; [8])
40: Plant response rating, Dallisgrass (dallisgrass; [1]) | Plant response rating, Dallisgrass (dallisgrass; [7])
75: Plant response rating, Morningglory (pitted morningglory; [4])
